Reference: patent US20100152261A1 (MITSUBISHI TANABE PHARMA CORPORATION, priority 2005, published 2010)
Where two headings read alike, the source gives them in different places.

Key:
muscarinic M2 receptor = target: T1, muscarinic M2 receptor (Cavia porcellus, UniProt H0VRN8); assay: Muscarinic M2 antagonistic action in isolated guinea pig left atrium (carbachol-induced relaxation, Schild method); type: cell-based; conditions: compound applied 30 minutes before carbachol
T1 construct: left atria were excised to prepare tissue specimens; from tissue; host or cells: isolated guinea pig left atrium (male Hartley)
T1 sequence (H0VRN8 1-466): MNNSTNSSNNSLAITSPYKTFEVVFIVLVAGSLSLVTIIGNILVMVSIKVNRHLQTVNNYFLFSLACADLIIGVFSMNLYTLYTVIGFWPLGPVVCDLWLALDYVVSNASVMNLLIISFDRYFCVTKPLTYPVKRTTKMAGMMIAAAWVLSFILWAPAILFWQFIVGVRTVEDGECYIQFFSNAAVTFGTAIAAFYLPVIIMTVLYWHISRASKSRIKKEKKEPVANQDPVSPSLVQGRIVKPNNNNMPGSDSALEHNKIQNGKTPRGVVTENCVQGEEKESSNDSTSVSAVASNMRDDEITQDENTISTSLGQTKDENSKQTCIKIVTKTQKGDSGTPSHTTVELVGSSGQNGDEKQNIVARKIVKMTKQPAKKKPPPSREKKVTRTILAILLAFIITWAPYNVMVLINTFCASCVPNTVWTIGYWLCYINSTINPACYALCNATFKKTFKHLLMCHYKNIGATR
Protocol: Muscarinic M2 Antagonistic Action in Isolated Guinea Pig Left Atrium […] Each tissue specimen was kept warm at 37° C., suspended with a resting tension of 0.5 g in a 5-mL Magnus bath filled with a Krebs carbonate buffer bubbled with 95% O2/5% CO2. Then, contraction evoked by field electrical stimulation (4 Hz, 2 msec, 1.5×threshold potential) was measured. After a stabilization period of 60 minutes, carbachol-induced relaxation was isometrically measured and recorded by the cumulative method from 10^−8 M with an interval of 90 seconds for one concentration in an equal ratio of 3. After the measurement, the tissue specimen was immediately washed, and left for 45 minutes as a stabilization period before the next observation. The tissue specimen of which EC50 for the carbachol-induced relaxation was stabilized was considered as a control. Each test compound was applied 30 minutes before the addition of carbachol. The affinity (pA2) of the test compound was obtained in the same manner as in the case of the trachea.

muscarinic M3 receptor = target: T2, muscarinic M3 receptor (Cavia porcellus, UniProt H0W1Z3); assay: Muscarinic M3 antagonistic action in isolated guinea pig trachea (carbachol-induced contraction, Schild method); type: cell-based; conditions: compound applied 15 minutes before carbachol
T2 construct: trachea was excised, and cut at every two tracheal cartilages to prepare tissue specimens; from tissue; host or cells: isolated guinea pig trachea (male Hartley)
Protocol: Muscarinic M3 Antagonistic Action in Isolated Guinea Pig Trachea
Male Hartley guinea pigs (350 to 600 g) were sacrificed by bleeding, and trachea was excised, and cut at every two tracheal cartilages to prepare tissue specimens. Each tissue specimen was kept warm at 37° C., suspended with a resting tension of 1 g in a 5-mL Magnus bath filled with a Krebs carbonate buffer containing indomethacin (1 μM) bubbled with 95% O2/5% CO2, and left for 60 minutes as a stabilization period. […] After the measurement, the tissue specimen was immediately washed, and left for 60 minutes as a stabilization period before the next contraction reaction, and the tissue specimen of which EC50 for the carbachol-induced contraction reaction was stabilized was considered as a control. Each test compound was applied 15 minutes before the addition of carbachol. The affinity (pA2) of the test compound was obtained by the Schild method (Arunlakshana, O. and Schild, H. O., Brit. J. Pharmacol., 1959, 14, 48-58).

[1] = pA2 Left atrium M2, isolated guinea pig left atrium
[2] = pA2 Trachea M3, isolated guinea pig trachea
[3] = isolated guinea pig left atrium, read-out: pA2 Left atrium M2 (converted)
[4] = isolated guinea pig trachea, read-out: pA2 Trachea M3 (converted)

T2 sequence (H0W1Z3 1-590): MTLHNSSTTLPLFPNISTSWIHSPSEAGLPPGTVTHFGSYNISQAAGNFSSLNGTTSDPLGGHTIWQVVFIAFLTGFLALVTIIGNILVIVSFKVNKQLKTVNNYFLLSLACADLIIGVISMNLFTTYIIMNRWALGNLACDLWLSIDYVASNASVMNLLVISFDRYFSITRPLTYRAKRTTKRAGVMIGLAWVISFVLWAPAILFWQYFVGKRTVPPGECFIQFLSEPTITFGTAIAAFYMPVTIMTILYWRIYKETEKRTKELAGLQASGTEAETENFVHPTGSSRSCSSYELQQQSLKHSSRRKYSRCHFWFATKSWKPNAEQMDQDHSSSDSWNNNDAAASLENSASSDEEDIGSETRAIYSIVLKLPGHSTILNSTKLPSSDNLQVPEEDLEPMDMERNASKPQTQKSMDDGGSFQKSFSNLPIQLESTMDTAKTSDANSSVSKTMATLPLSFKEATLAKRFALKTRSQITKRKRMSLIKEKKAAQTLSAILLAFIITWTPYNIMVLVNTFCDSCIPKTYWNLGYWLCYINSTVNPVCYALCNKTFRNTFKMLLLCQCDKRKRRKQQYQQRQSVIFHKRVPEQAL

SMILES	Kb (muscarinic M2 receptor; [1]) [nM]	Kb (muscarinic M3 receptor; [2]) [nM]	Kb (muscarinic M2 receptor; [3]) [nM]	Kb (muscarinic M3 receptor; [4]) [nM]
Cc1n([C@H]2CC[C@H](C(C(N)=O)(c3ccccc3)c3ccccc3)C2)cc[n+]1CCC(C)C (relative stereo) [Example 73, 3-(trans-3-(Carbamoyl(diphenyl)methyl)cyclopentyl)-2-methyl-1-(3-methylbutyl)-3H-imidazol-1-ium bromide]	6.31	0.631	–	–
COCC[n+]1ccn([C@@H]2CC[C@H](C(C(N)=O)(c3ccccc3)c3ccccc3)C2)c1C [Example 77, 3-((1R,3S)-3-(Carbamoyl(diphenyl)methyl)cyclopentyl)-1-(2-methoxyethyl)-2-methyl-3H-imidazol-1-ium para-toluenesulfonate]	–	–	6.31	0.251
CC(=O)C[n+]1ccn([C@H]2CC[C@H](C(C#N)(c3ccccc3)c3ccccc3)C2)c1C (relative stereo) [Example 88, 3-(trans-3-(Cyano(diphenyl)methyl)cyclopentyl)-2-methyl-1-(2-oxopropyl)-3H-imidazol-1-ium bromide]	251	1	–	–
COCC[n+]1ccn([C@H]2CC[C@@H](C(C(N)=O)(c3ccccc3)c3ccccc3)C2)c1C [Example 76, 3-((1S,3R)-3-(Carbamoyl(diphenyl)methyl)cyclopentyl)-1-(2-methoxyethyl)-2-methyl-3H-imidazol-1-ium para-toluenesulfonate]	–	–	200	1.26
C[n+]1cn([C@H]2CC[C@@H](C(C(N)=O)(c3ccccc3)c3ccccc3)C2)cn1 (relative stereo) [Example 69, 4-(cis-3-(Carbamoyl(diphenyl)methyl)cyclopentyl)-1-methyl-4H-[1,2,4]triazol-1-ium iodide]	25.1	0.794	–	–
CC1=[N+](C)CCN1[C@H]1CC[C@@H](C(C(N)=O)(c2ccccc2)c2ccccc2)C1 [Example 58, 3-((1S,3R)-3-(Carbamoyl(diphenyl)methyl)cyclopentyl)-1,2-dimethyl-4,5-dihydro-3H-imidazol-1-ium iodide]	79.4	3.16	–	–
CC#CC[n+]1ccn([C@H]2CC[C@@H](C(C(N)=O)(c3ccccc3)c3ccccc3)C2)c1C [Example 82]	63.1	0.794	–	–
Cc1n([C@H]2CC[C@H](C(C(N)=O)(c3ccccc3)c3ccccc3)C2)cc[n+]1Cc1ccccc1 (single isomer, unassigned) [Example 98, 1-Benzyl-3-(trans-3-(carbamoyl(diphenyl)methyl)cyclopentyl)-2-methyl-3H-imidazol-1-ium bromide]	15.8	0.398	–	–
Cc1n([C@H]2CC[C@H](C(C#N)(c3ccccc3)c3ccccc3)C2)cc[n+]1Cc1ccccc1 (relative stereo) [Example 87, 1-Benzyl-3-(trans-3-(cyano(diphenyl)methyl)cyclopentyl)-2-methyl-3H-imidazol-1-ium bromide]	50.1	1	–	–
CC(C)[N+]1(C)[C@@H]2CC[C@H]1C[C@@H](OC(=O)C(CO)c1ccccc1)C2 (some centres unmarked) [Ipratropium, reference compound]	3.98	1	–	–
Cc1n([C@H]2CC[C@@H](C(C(N)=O)(c3ccccc3)c3ccccc3)C2)cc[n+]1C(F)F [Example 81, 3-((1S,3R)-3-(Carbamoyl(diphenyl)methyl)cyclopentyl)-1-difluoromethyl-2-methyl-3H-imidazol-1-ium bromide]	–	1	–	–
CC1=[N+](C)CCN1[C@@H]1CC[C@H](C(C(N)=O)(c2ccccc2)c2ccccc2)C1 [Example 57, 3-((1R,3S)-3-(Carbamoyl(diphenyl)methyl)cyclopentyl)-1,2-dimethyl-4,5-dihydro-3H-imidazol-1-ium iodide]	25.1	1.26	–	–
Cc1n([C@H]2CC[C@H](C(C(N)=O)(c3ccccc3)c3ccccc3)C2)cc[n+]1C (relative stereo) [Example 66, 3-(trans-3-(Carbamoyl(diphenyl)methyl)cyclopentyl)-1,2-dimethyl-3H-imidazol-1-ium iodide]	39.8	1.26	–	–
CN1[C@@H]2CC[C@H]1C[C@@H](OC(=O)C(CO)c1ccccc1)C2 (some centres unmarked) [Atropine, reference compound]	2.51	–	–	–
